Assay results published in PubChem BioAssay AID256 (DTP/NCI, 2004).
Several values for one entry are separate records, joined by “and”; a condition that tells them apart may be missing. Equal entries are not always repeated. Toxic doses and inconclusive results are not listed.

Tested on: CD2F1 mice, L1210 leukemia ip, survival T/C
Assay: NCI In Vivo Anticancer Drug Screen. Data for tumor model L1210 Leukemia (intraperitoneal) in CD2F1 (CDF1) mice
Conditions: higher = longer survival
Procedure, shortened: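 Transplantable tumor in mice; compound-treated vs vehicle-treated groups. Read-out = treated/control ratio of the measured endpoint.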

## Cc1cc(NCCCCCCNc2cc(C)nc3ccc(N)cc23)c2cc(N)ccc2n1
endpoint: mean survival time, dose: 0.16 mg/kg/injection, schedule: Q08HX006 (iv), vehicle: water
  T/C: 103 % of control
endpoint: mean survival time, dose: 0.31 mg/kg/injection, schedule: Q08HX006 (iv), vehicle: water
  T/C: 104 % of control
endpoint: mean survival time, dose: 0.4 mg/kg/injection, schedule: Q08HX009 (ip), vehicle: water
  T/C: 105 % of control
endpoint: mean survival time, dose: 0.6 mg/kg/injection, schedule: Q01DX009 (ip), vehicle: water
  T/C: 98 % of control
endpoint: mean survival time, dose: 0.6 mg/kg/injection, schedule: Q08HX009 (iv), vehicle: water
  T/C: 88 % of control
endpoint: mean survival time, dose: 0.63 mg/kg/injection, schedule: Q08HX006 (iv), vehicle: water
  T/C: 92 % of control
endpoint: mean survival time, dose: 0.8 mg/kg/injection, schedule: Q08HX009 (ip), vehicle: water
  T/C: 101 % of control
endpoint: mean survival time, dose: 1.1 mg/kg/injection, schedule: Q01DX005 (iv), vehicle: water
  T/C: 104 % of control
endpoint: mean survival time, dose: 1.2 mg/kg/injection, schedule: Q01DX009 (ip), vehicle: water
  T/C: 97 % of control
endpoint: mean survival time, dose: 1.25 mg/kg/injection, schedule: Q08HX006 (iv), vehicle: water
  T/C: 103 % of control
endpoint: mean survival time, dose: 1.3 mg/kg/injection, schedule: Q08HX009 (iv), vehicle: water
  T/C: 94 % of control
endpoint: mean survival time, dose: 1.4 mg/kg/injection, schedule: Q01DX005 (iv), vehicle: water
  T/C: 98 % of control
endpoint: mean survival time, dose: 1.56 mg/kg/injection, schedule: Q01DX009 (ip), vehicle: water
  T/C: 103 % of control and 111 % of control
endpoint: mean survival time, dose: 1.6 mg/kg/injection, schedule: Q08HX009 (ip), vehicle: water
  T/C: 104 % of control
endpoint: mean survival time, dose: 1.9 mg/kg/injection, schedule: Q01DX005 (iv), vehicle: water
  T/C: 101 % of control
endpoint: mean survival time, dose: 1.9 mg/kg/injection, schedule: Q08HX009 (iv), vehicle: saline with Tween-80
  T/C: 92 % of control
endpoint: mean survival time, dose: 2.4 mg/kg/injection, schedule: Q01DX009 (ip), vehicle: saline with Tween-80
  T/C: 114 % of control and 116 % of control
endpoint: mean survival time, dose: 2.4 mg/kg/injection, schedule: Q01DX009 (ip), vehicle: water
  T/C: 111 % of control
endpoint: mean survival time, dose: 2.5 mg/kg/injection, schedule: Q01DX005 (iv), vehicle: water
  T/C: 103 % of control
endpoint: mean survival time, dose: 2.5 mg/kg/injection, schedule: Q08HX006 (iv), vehicle: water
  T/C: 105 % of control
endpoint: mean survival time, dose: 2.5 mg/kg/injection, schedule: Q08HX009 (ip), vehicle: saline with Tween-80
  T/C: 119 % of control
endpoint: mean survival time, dose: 2.5 mg/kg/injection, schedule: Q08HX009 (iv), vehicle: water
  T/C: 93 % of control
endpoint: mean survival time, dose: 2.53 mg/kg/injection, schedule: Q01DX005 (iv), vehicle: water
  T/C: 95 % of control
endpoint: mean survival time, dose: 2.58 mg/kg/injection, schedule: Q01DX005 (iv), vehicle: saline with Tween-80
  T/C: 101 % of control
endpoint: mean survival time, dose: 3.0 mg/kg/injection, schedule: Q01DX009 (ip), vehicle: water
  T/C: 95 % of control and 107 % of control
endpoint: mean survival time, dose: 3.13 mg/kg/injection, schedule: Q01DX009 (ip), vehicle: water
  T/C: 113 % of control and 124 % of control
endpoint: mean survival time, dose: 3.2 mg/kg/injection, schedule: Q08HX009 (ip), vehicle: water
  T/C: 112 % of control
endpoint: mean survival time, dose: 3.38 mg/kg/injection, schedule: Q01DX005 (iv), vehicle: water
  T/C: 100 % of control
endpoint: mean survival time, dose: 3.38 mg/kg/injection, schedule: Q01DX009 (sc), vehicle: water
  T/C: 98 % of control
endpoint: mean survival time, dose: 3.4 mg/kg/injection, schedule: Q01DX005 (iv), vehicle: water
  T/C: 101 % of control
endpoint: mean survival time, dose: 3.44 mg/kg/injection, schedule: Q01DX009 (ip), vehicle: saline with Tween-80
  T/C: 114 % of control
endpoint: mean survival time, dose: 3.44 mg/kg/injection, schedule: Q01DX009 (sc), vehicle: saline with Tween-80
  T/C: 100 % of control
endpoint: mean survival time, dose: 3.7 mg/kg/injection, schedule: Q01DX009 (ip), vehicle: saline with Tween-80
  T/C: 117 % of control
endpoint: mean survival time, dose: 3.8 mg/kg/injection, schedule: Q08HX006 (iv), vehicle: saline with Tween-80
  T/C: 101 % of control
endpoint: mean survival time, dose: 3.8 mg/kg/injection, schedule: Q08HX009 (iv), vehicle: saline with Tween-80
  T/C: 88 % of control
endpoint: mean survival time, dose: 4.51 mg/kg/injection, schedule: Q01DX009 (ip), vehicle: water
  T/C: 113 % of control
endpoint: mean survival time, dose: 4.59 mg/kg/injection, schedule: Q01DX009 (ip), vehicle: saline with Tween-80
  T/C: 115 % of control
endpoint: mean survival time, dose: 4.59 mg/kg/injection, schedule: Q01DX009 (sc), vehicle: saline with Tween-80
  T/C: 96 % of control
endpoint: mean survival time, dose: 4.7 mg/kg/injection, schedule: Q01DX009 (ip), vehicle: saline with Tween-80
  T/C: 121 % of control
endpoint: mean survival time, dose: 4.8 mg/kg/injection, schedule: Q01DX009 (ip), vehicle: water
  T/C: 114 % of control
endpoint: mean survival time, dose: 5.0 mg/kg/injection, schedule: Q08HX006 (iv), vehicle: water
  T/C: 100 % of control
endpoint: mean survival time, dose: 5.3 mg/kg/injection, schedule: Q01DX009 (ip), vehicle: water
  T/C: 114 % of control and 97 % of control
endpoint: mean survival time, dose: 6.12 mg/kg/injection, schedule: Q01DX005 (iv), vehicle: saline with Tween-80
  T/C: 97 % of control
endpoint: mean survival time, dose: 6.12 mg/kg/injection, schedule: Q01DX009 (ip), vehicle: saline with Tween-80
  T/C: 119 % of control
endpoint: mean survival time, dose: 6.12 mg/kg/injection, schedule: Q01DX009 (sc), vehicle: saline with Tween-80
  T/C: 97 % of control
endpoint: mean survival time, dose: 6.25 mg/kg/injection, schedule: Q01DX009 (ip), vehicle: water
  T/C: 122 % of control
endpoint: mean survival time, dose: 6.4 mg/kg/injection, schedule: Q08HX009 (ip), vehicle: water
  T/C: 121 % of control
endpoint: mean survival time, dose: 7.2 mg/kg/injection, schedule: Q01DX009 (ip), vehicle: saline with Tween-80
  T/C: 115 % of control
endpoint: mean survival time, dose: 7.4 mg/kg/injection, schedule: Q01DX009 (ip), vehicle: saline with Tween-80
  T/C: 120 % of control
endpoint: mean survival time, dose: 7.6 mg/kg/injection, schedule: Q08HX006 (iv), vehicle: saline with Tween-80
  T/C: 101 % of control
endpoint: mean survival time, dose: 7.6 mg/kg/injection, schedule: Q08HX009 (iv), vehicle: saline with Tween-80
  T/C: 89 % of control
endpoint: mean survival time, dose: 8.2 mg/kg/injection, schedule: Q01DX009 (sc), vehicle: saline with Tween-80
  T/C: 98 % of control
endpoint: mean survival time, dose: 9.0 mg/kg/injection, schedule: Q01DX009 (ip), vehicle: saline
  T/C: 121 % of control
endpoint: mean survival time, dose: 9.4 mg/kg/injection, schedule: Q01DX009 (ip), vehicle: water
  T/C: 118 % of control
endpoint: mean survival time, dose: 10.9 mg/kg/injection, schedule: Q01DX009 (sc), vehicle: saline with Tween-80
  T/C: 98 % of control
endpoint: mean survival time, dose: 12.8 mg/kg/injection, schedule: Q01DX009 (ip), vehicle: saline with Tween-80
  T/C: 115 % of control
endpoint: mean survival time, dose: 14.5 mg/kg/injection, schedule: Q01DX009 (ip), vehicle: saline with Tween-80
  T/C: 156 % of control
endpoint: mean survival time, dose: 15.3 mg/kg/injection, schedule: Q08HX009 (iv), vehicle: saline with Tween-80
  T/C: 89 % of control
endpoint: mean survival time, dose: 19.0 mg/kg/injection, schedule: Q01DX009 (sc), vehicle: water
  T/C: 113 % of control
endpoint: mean survival time, dose: 19.4 mg/kg/injection, schedule: Q01DX005 (iv), vehicle: saline with Tween-80
  T/C: 118 % of control and 119 % of control
endpoint: mean survival time, dose: 19.4 mg/kg/injection, schedule: Q01DX009 (ip), vehicle: saline with Tween-80
  T/C: 165 % of control
endpoint: mean survival time, dose: 19.4 mg/kg/injection, schedule: Q01DX009 (sc), vehicle: saline with Tween-80
  T/C: 115 % of control
endpoint: mean survival time, dose: 19.6 mg/kg/injection, schedule: Q08HX009 (ip), vehicle: saline with Tween-80
  T/C: 151 % of control
endpoint: mean survival time, dose: 22.7 mg/kg/injection, schedule: Q01DX009 (ip), vehicle: saline with Tween-80
  T/C: 118 % of control
endpoint: mean survival time, dose: 25.0 mg/kg/injection, schedule: Q01DX009 (ip), vehicle: water
  T/C: 109 % of control
endpoint: mean survival time, dose: 25.3 mg/kg/injection, schedule: Q01DX009 (ip), vehicle: water
  T/C: 160 % of control
endpoint: mean survival time, dose: 25.3 mg/kg/injection, schedule: Q01DX009 (sc), vehicle: water
  T/C: 115 % of control
endpoint: mean survival time, dose: 25.8 mg/kg/injection, schedule: Q01DX005 (iv), vehicle: saline with Tween-80
  T/C: 117 % of control and 120 % of control
endpoint: mean survival time, dose: 25.8 mg/kg/injection, schedule: Q01DX009 (ip), vehicle: saline with Tween-80
  T/C: 166 % of control
endpoint: mean survival time, dose: 25.8 mg/kg/injection, schedule: Q01DX009 (sc), vehicle: saline with Tween-80
  T/C: 123 % of control
endpoint: mean survival time, dose: 29.4 mg/kg/injection, schedule: Q01DX009 (ip), vehicle: saline with Tween-80
  T/C: 171 % of control
endpoint: mean survival time, dose: 30.6 mg/kg/injection, schedule: Q08HX009 (iv), vehicle: saline with Tween-80
  T/C: 95 % of control
endpoint: mean survival time, dose: 33.8 mg/kg/injection, schedule: Q01DX009 (sc), vehicle: water
  T/C: 124 % of control
endpoint: mean survival time, dose: 34.4 mg/kg/injection, schedule: Q01DX005 (iv), vehicle: saline with Tween-80
  T/C: 116 % of control and 123 % of control
endpoint: mean survival time, dose: 34.4 mg/kg/injection, schedule: Q01DX009 (ip), vehicle: saline with Tween-80
  T/C: 167 % of control
endpoint: mean survival time, dose: 34.4 mg/kg/injection, schedule: Q01DX009 (sc), vehicle: saline with Tween-80
  T/C: 124 % of control
endpoint: mean survival time, dose: 39.2 mg/kg/injection, schedule: Q08HX009 (ip), vehicle: saline with Tween-80
  T/C: 165 % of control
endpoint: mean survival time, dose: 40.4 mg/kg/injection, schedule: Q01DX009 (ip), vehicle: saline with Tween-80
  T/C: 123 % of control
endpoint: mean survival time, dose: 45.9 mg/kg/injection, schedule: Q01DX009 (ip), vehicle: saline with Tween-80
  T/C: 171 % of control
endpoint: mean survival time, dose: 58.8 mg/kg/injection, schedule: Q01DX009 (ip), vehicle: saline with Tween-80
  T/C: 185 % of control
endpoint: mean survival time, dose: 71.8 mg/kg/injection, schedule: Q01DX009 (ip), vehicle: saline with Tween-80
  T/C: 157 % of control
endpoint: mean survival time, dose: 78.4 mg/kg/injection, schedule: Q08HX009 (ip), vehicle: saline with Tween-80
  T/C: 180 % of control
endpoint: mean survival time, dose: 117.6 mg/kg/injection, schedule: Q01DX009 (ip), vehicle: saline with Tween-80
  T/C: 98 % of control
endpoint: mean survival time, dose: 127.8 mg/kg/injection, schedule: Q01DX009 (ip), vehicle: saline with Tween-80
  T/C: 151 % of control
endpoint: mean survival time, dose: 150.0 mg/kg/injection, schedule: Q01DX009 (ip), vehicle: saline with Tween-80
  T/C: 168 % of control and 174 % of control
endpoint: mean survival time, dose: 300.0 mg/kg/injection, schedule: Q01DX009 (ip), vehicle: saline with Tween-80
  T/C: 120 % of control
endpoint: median survival time, dose: 0.78 mg/kg/injection, schedule: Q01DX009 (ip), vehicle: water
  T/C: 98 % of control
endpoint: median survival time, dose: 1.56 mg/kg/injection, schedule: Q01DX009 (ip), vehicle: water
  T/C: 93 % of control
endpoint: median survival time, dose: 3.12 mg/kg/injection, schedule: Q01DX009 (ip), vehicle: water
  T/C: 98 % of control
endpoint: median survival time, dose: 6.25 mg/kg/injection, schedule: Q01DX009 (ip), vehicle: water
  T/C: 109 % of control
endpoint: median survival time, dose: 12.5 mg/kg/injection, schedule: Q01DX009 (ip), vehicle: water
  T/C: 117 % of control
